Reference: the supplement of paper PMC10331698
± gives the standard deviation of the averaged measurements.

Tests used:
Assay in all cases: level (log10 ratio to DMSO vehicle control); higher = higher biomarker level / cell amount than vehicle control
Methotrexate = compound: CN(Cc1cnc2nc(N)nc(N)c2n1)c1ccc(C(=O)N[C@@H](CCC(=O)O)C(=O)O)cc1 [Methotrexate]; details: in DMSO
Description: (§1)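 BioMAP Diversity Plus panel of 12 human primary cell co-culture systems (3C, 4H, LPS, SAg, BT, BF4T, BE3C, CASM3C, HDF3CGF, KF3CT, MyoF, Mphg). Compounds were added 1 h before stimulation and left for 24 h (MyoF 48 h; BT 72 h for soluble read-outs or 6 d for IgG). Biomarkers were read by ELISA, cytotoxicity by SRB, PBMC viability and proliferation by Alamar Blue. Each well value was divided by the mean of 8 DMSO control wells on the same plate and log10 transformed; duplicate blinded samples were tested at 4 concentrations.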

[1] = compound: FC(F)(F)C(F)(F)C(F)(F)C(F)(F)CCI [1H,1H,2H,2H-Perfluorohexyl iodide]; details: in DMSO
Description: as §1

[2] = compound: FC(F)(F)COC(OCC(F)(F)F)OCC(F)(F)F [tris(Trifluoroethoxy)methane]; details: in DMSO
Description: as §1

[3] = compound: O=C(CC(=O)C(F)(F)C(F)(F)C(F)(F)F)c1cccs1 [(Perfluorobutyryl)-2-thenoylmethane]; details: in DMSO
Description: as §1

[4] = compound: O=S(=O)(O)CCC(F)(F)C(F)(F)C(F)(F)C(F)(F)F [4:2 Fluorotelomer sulfonic acid]; details: in DMSO
Description: as §1

[5] = compound: OCC(F)(F)C(F)(F)C(F)(F)C(F)(F)C(F)(F)C(F)(F)F [6:1 Fluorotelomer alcohol]; details: in DMSO
Description: as §1

[6] = compound: OCCCC(F)(F)C(F)(F)C(F)(F)C(F)(F)C(F)(F)C(F)(F)C(F)(F)C(F)(F)F [3-(Perfluorooctyl)propanol]; details: 6700 nM; in DMSO
Description: as §1

With BE3C:CXCL9/MIG the “level (log10)” value (Methotrexate; 1500 nM) was 0.006 ± 0.0071, the “level (log10)” value (Methotrexate; 4400 nM) was 0.013 ± 0.0028 and the “level (log10)” value (Methotrexate; 13000 nM) was 0.013 ± 0.014. The “level (log10)” value (Methotrexate; 40000 nM) was 0.01 ± 0.0057, the “level (log10)” value ([1]; 6700 nM) was 0.006 ± 0.0085 and the “level (log10)” value ([1]; 20000 nM) was 0.002 ± 0.016. For the same test system, the “level (log10)” value ([1]; 60000 nM) was 0.0165 ± 0.028, the “level (log10)” value ([2]; 6700 nM) was 0.001 ± 0.0071 and the “level (log10)” value ([2]; 20000 nM) was 0.0025 ± 0.023. For the same test system, the “level (log10)” value ([2]; 60000 nM) was -0.0045 ± 0.018, the “level (log10)” value ([3]; 6700 nM) was -0.0095 ± 0.016 and the “level (log10)” value ([3]; 20000 nM) was -0.142 ± 0.0028. The “level (log10)” value ([4]; 6700 nM) was -0.003 ± 0.0057, the “level (log10)” value ([4]; 20000 nM) was -0.005 ± 0.0099 and the “level (log10)” value ([4]; 60000 nM) was 0.0095 ± 0.012. The “level (log10)” value ([5]; 6700 nM) was -0.005 ± 0.013, the “level (log10)” value ([5]; 20000 nM) was -0.002 ± 0.0099 and the “level (log10)” value ([5]; 60000 nM) was -0.545 ± 0.4. For the same test system, the “level (log10)” value [6] was -0.0045 ± 0.018.
In the case of BT:sIL-2, the “level (log10)” value (Methotrexate; 1500 nM) is reported as 0.0155 ± 0.016, the “level (log10)” value (Methotrexate; 4400 nM) is reported as -0.0845 ± 0.11 and the “level (log10)” value (Methotrexate; 13000 nM) is reported as 0.0085 ± 0.035. The “level (log10)” value (Methotrexate; 40000 nM) was -0.075 ± 0.035, the “level (log10)” value ([1]; 6700 nM) was 0.0565 ± 0.029 and the “level (log10)” value ([1]; 20000 nM) was -0.0065 ± 0.0021. For the same test system, the “level (log10)” value ([1]; 60000 nM) was -0.056 ± 0.057, the “level (log10)” value ([2]; 6700 nM) was -0.0155 ± 0.016 and the “level (log10)” value ([2]; 20000 nM) was 0.0015 ± 0.021. The “level (log10)” value ([2]; 60000 nM) was 0.029 ± 0.025, the “level (log10)” value ([3]; 6700 nM) was 0.0385 ± 0.067 and the “level (log10)” value ([3]; 20000 nM) was -0.001 ± 0.0014. For the same test system, the “level (log10)” value ([4]; 6700 nM) was -0.009 ± 0.059, the “level (log10)” value ([4]; 20000 nM) was -0.044 ± 0.037 and the “level (log10)” value ([4]; 60000 nM) was 0.038 ± 0.02. For the same test system, the “level (log10)” value ([5]; 6700 nM) was 0.0235 ± 0.028, the “level (log10)” value ([5]; 20000 nM) was -0.012 ± 0.075 and the “level (log10)” value ([5]; 60000 nM) was -0.289 ± 0.081. The “level (log10)” value [6] was -0.0245 ± 0.016.
With BE3C:CXCL8/IL-8 the “level (log10)” value (Methotrexate; 1500 nM) was 0.0795 ± 0.069, the “level (log10)” value (Methotrexate; 4400 nM) was 0.035 ± 0.089 and the “level (log10)” value (Methotrexate; 13000 nM) was 0.053 ± 0.057. The “level (log10)” value (Methotrexate; 40000 nM) was 0.048 ± 0.11, the “level (log10)” value ([1]; 6700 nM) was 0.0225 ± 0.0078 and the “level (log10)” value ([1]; 20000 nM) was 0.016 ± 0.025. For the same test system, the “level (log10)” value ([1]; 60000 nM) was 0.0525 ± 0.057, the “level (log10)” value ([2]; 6700 nM) was 0.018 ± 0.051 and the “level (log10)” value ([2]; 20000 nM) was 0.0155 ± 0.04. The “level (log10)” value ([2]; 60000 nM) was 0.0505 ± 0.013, the “level (log10)” value ([3]; 6700 nM) was -0.0905 ± 0.013 and the “level (log10)” value ([3]; 20000 nM) was -0.01 ± 0.023. The “level (log10)” value ([4]; 6700 nM) was 0.0165 ± 0.023, the “level (log10)” value ([4]; 20000 nM) was -0.009 ± 0.0085 and the “level (log10)” value ([4]; 60000 nM) was 0.0175 ± 0.0064. The “level (log10)” value ([5]; 6700 nM) was 0.004 ± 0.017, the “level (log10)” value ([5]; 20000 nM) was -0.0125 ± 0.042 and the “level (log10)” value ([5]; 60000 nM) was -0.0075 ± 0.0064. For the same test system, the “level (log10)” value [6] was -0.046 ± 0.011.
BT:sIL-6 was tested, and the “level (log10)” value (Methotrexate; 1500 nM) was 0.0125 ± 0.013, the “level (log10)” value (Methotrexate; 4400 nM) was -0.034 ± 0.1 and the “level (log10)” value (Methotrexate; 13000 nM) was -0.0095 ± 0.059. The “level (log10)” value (Methotrexate; 40000 nM) was -0.2 ± 0.033, the “level (log10)” value ([1]; 6700 nM) was 0.0605 ± 0.036 and the “level (log10)” value ([1]; 20000 nM) was 0.0075 ± 0.0064. The “level (log10)” value ([1]; 60000 nM) was -0.0525 ± 0.00071, the “level (log10)” value ([2]; 6700 nM) was -0.006 ± 0.037 and the “level (log10)” value ([2]; 20000 nM) was 0.0005 ± 0.0092. The “level (log10)” value ([2]; 60000 nM) was -0.0105 ± 0.11, the “level (log10)” value ([3]; 6700 nM) was -0.009 ± 0.024 and the “level (log10)” value ([3]; 20000 nM) was -0.265 ± 0.067. The “level (log10)” value ([4]; 6700 nM) was 0.047 ± 0.041, the “level (log10)” value ([4]; 20000 nM) was -0.0105 ± 0.011 and the “level (log10)” value ([4]; 60000 nM) was -0.052 ± 0.13. The “level (log10)” value ([5]; 6700 nM) was -0.001 ± 0.025, the “level (log10)” value ([5]; 20000 nM) was -0.034 ± 0.073 and the “level (log10)” value ([5]; 60000 nM) was -0.296 ± 0.036. For the same test system, the “level (log10)” value [6] was 0.0875 ± 0.052.
4H:VEGFR2 was tested, and the “level (log10)” value (Methotrexate; 1500 nM) was -0.0035 ± 0.04, the “level (log10)” value (Methotrexate; 4400 nM) was -0.028 ± 0.035 and the “level (log10)” value (Methotrexate; 13000 nM) was -0.014 ± 0.017. The “level (log10)” value (Methotrexate; 40000 nM) was 0.022 ± 0.0057, the “level (log10)” value ([1]; 6700 nM) was -0.029 ± 0.065 and the “level (log10)” value ([1]; 20000 nM) was -0.058. For the same test system, the “level (log10)” value ([1]; 60000 nM) was -0.0605 ± 0.043, the “level (log10)” value ([2]; 6700 nM) was -0.0045 ± 0.023 and the “level (log10)” value ([2]; 20000 nM) was 0.006 ± 0.017. For the same test system, the “level (log10)” value ([2]; 60000 nM) was 0.006 ± 0.021, the “level (log10)” value ([3]; 6700 nM) was -0.0915 ± 0.0078 and the “level (log10)” value ([3]; 20000 nM) was -0.172 ± 0.064. The “level (log10)” value ([4]; 6700 nM) was -0.103 ± 0.042, the “level (log10)” value ([4]; 20000 nM) was -0.0525 ± 0.071 and the “level (log10)” value ([4]; 60000 nM) was 0.025 ± 0.075. The “level (log10)” value ([5]; 6700 nM) was 0.0035 ± 0.042, the “level (log10)” value ([5]; 20000 nM) was -0.005 ± 0.013 and the “level (log10)” value ([5]; 60000 nM) was 0.012 ± 0.023. The “level (log10)” value [6] was -0.013 ± 0.0085.
For 4H:CCL2/MCP-1, the “level (log10)” value (Methotrexate; 1500 nM) was -0.02 ± 0.011, the “level (log10)” value (Methotrexate; 4400 nM) was -0.035 ± 0.02 and the “level (log10)” value (Methotrexate; 13000 nM) was -0.0215 ± 0.023. The “level (log10)” value (Methotrexate; 40000 nM) was 0.0105 ± 0.0021, the “level (log10)” value ([1]; 6700 nM) was 0.0175 ± 0.021 and the “level (log10)” value ([1]; 20000 nM) was -0.008 ± 0.016. For the same test system, the “level (log10)” value ([1]; 60000 nM) was 0.0195 ± 0.042, the “level (log10)” value ([2]; 6700 nM) was -0.017 ± 0.017 and the “level (log10)” value ([2]; 20000 nM) was -0.017 ± 0.018. The “level (log10)” value ([2]; 60000 nM) was 0.031 ± 0.054, the “level (log10)” value ([3]; 6700 nM) was -0.0825 ± 0.0078 and the “level (log10)” value ([3]; 20000 nM) was -0.249 ± 0.0042. The “level (log10)” value ([4]; 6700 nM) was 0.014 ± 0.0014, the “level (log10)” value ([4]; 20000 nM) was -0.0085 ± 0.028 and the “level (log10)” value ([4]; 60000 nM) was 0.019 ± 0.0071. The “level (log10)” value ([5]; 6700 nM) was -0.005 ± 0.0071, the “level (log10)” value ([5]; 20000 nM) was -0.0135 ± 0.0035 and the “level (log10)” value ([5]; 60000 nM) was 0.002 ± 0.042. The “level (log10)” value [6] was 0.0195 ± 0.0078.
For 4H:SRB, the “level (log10)” value (Methotrexate; 1500 nM) was 0.0105 ± 0.0078, the “level (log10)” value (Methotrexate; 4400 nM) was -0.0075 ± 0.011 and the “level (log10)” value (Methotrexate; 13000 nM) was 0.0035 ± 0.00071. The “level (log10)” value (Methotrexate; 40000 nM) was 0.007 ± 0.0014, the “level (log10)” value ([1]; 6700 nM) was 0.0015 ± 0.0035 and the “level (log10)” value ([1]; 20000 nM) was -0.0045 ± 0.026. For the same test system, the “level (log10)” value ([1]; 60000 nM) was 0.0005 ± 0.0078, the “level (log10)” value ([2]; 6700 nM) was -0.0055 ± 0.0021 and the “level (log10)” value ([2]; 20000 nM) was -0.004 ± 0.0042. For the same test system, the “level (log10)” value ([2]; 60000 nM) was -0.011 ± 0.017, the “level (log10)” value ([3]; 6700 nM) was -0.0255 ± 0.00071 and the “level (log10)” value ([3]; 20000 nM) was -0.136 ± 0.0021. The “level (log10)” value ([4]; 6700 nM) was -0.0035 ± 0.00071, the “level (log10)” value ([4]; 20000 nM) was -0.0055 ± 0.005 and the “level (log10)” value ([4]; 60000 nM) was -0.0035 ± 0.0092. For the same test system, the “level (log10)” value ([5]; 6700 nM) was -0.0125 ± 0.005, the “level (log10)” value ([5]; 20000 nM) was -0.006 ± 0.0085 and the “level (log10)” value ([5]; 60000 nM) was -0.002 ± 0.014. For the same test system, the “level (log10)” value [6] was -0.0015 ± 0.00071.
